Measurements: US10508113B2, “Inhibitors of tyrosine kinase 2 mediated signaling” (AbbVie Inc., priority 2018, dated 2019)

Target: T1, Jak1 (Homo sapiens, UniProt P23458)
T1 construct: endogenous in cells; host or cells: TF1 cells
Assay: Jak1 (PSTAT3 TF1) alpha screen assay: inhibition of IL-6 induced phosphorylation of STAT3 in TF1 cells
Type: cell-based
Details: for EC50: IL-6 induced pSTAT3, TF1 cells; for Tyk2 selectivity over Jak1: calculated from tabulated EC50 data (Jak1 / Tyk2)
Summary of the method: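 IL-6-starved TF1 cells were preincubated 30 min at 37 °C with compound (top final 25 μM, 8-point 1:5 series), then stimulated with IL-6 (100 ng/mL final) for 30 min at 37 °C. Lysates were read for pSTAT3 (Tyr705) by AlphaScreen SureFire. EC50 from percent-activity dose-response curves.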

T1 sequence (P23458 whole entry): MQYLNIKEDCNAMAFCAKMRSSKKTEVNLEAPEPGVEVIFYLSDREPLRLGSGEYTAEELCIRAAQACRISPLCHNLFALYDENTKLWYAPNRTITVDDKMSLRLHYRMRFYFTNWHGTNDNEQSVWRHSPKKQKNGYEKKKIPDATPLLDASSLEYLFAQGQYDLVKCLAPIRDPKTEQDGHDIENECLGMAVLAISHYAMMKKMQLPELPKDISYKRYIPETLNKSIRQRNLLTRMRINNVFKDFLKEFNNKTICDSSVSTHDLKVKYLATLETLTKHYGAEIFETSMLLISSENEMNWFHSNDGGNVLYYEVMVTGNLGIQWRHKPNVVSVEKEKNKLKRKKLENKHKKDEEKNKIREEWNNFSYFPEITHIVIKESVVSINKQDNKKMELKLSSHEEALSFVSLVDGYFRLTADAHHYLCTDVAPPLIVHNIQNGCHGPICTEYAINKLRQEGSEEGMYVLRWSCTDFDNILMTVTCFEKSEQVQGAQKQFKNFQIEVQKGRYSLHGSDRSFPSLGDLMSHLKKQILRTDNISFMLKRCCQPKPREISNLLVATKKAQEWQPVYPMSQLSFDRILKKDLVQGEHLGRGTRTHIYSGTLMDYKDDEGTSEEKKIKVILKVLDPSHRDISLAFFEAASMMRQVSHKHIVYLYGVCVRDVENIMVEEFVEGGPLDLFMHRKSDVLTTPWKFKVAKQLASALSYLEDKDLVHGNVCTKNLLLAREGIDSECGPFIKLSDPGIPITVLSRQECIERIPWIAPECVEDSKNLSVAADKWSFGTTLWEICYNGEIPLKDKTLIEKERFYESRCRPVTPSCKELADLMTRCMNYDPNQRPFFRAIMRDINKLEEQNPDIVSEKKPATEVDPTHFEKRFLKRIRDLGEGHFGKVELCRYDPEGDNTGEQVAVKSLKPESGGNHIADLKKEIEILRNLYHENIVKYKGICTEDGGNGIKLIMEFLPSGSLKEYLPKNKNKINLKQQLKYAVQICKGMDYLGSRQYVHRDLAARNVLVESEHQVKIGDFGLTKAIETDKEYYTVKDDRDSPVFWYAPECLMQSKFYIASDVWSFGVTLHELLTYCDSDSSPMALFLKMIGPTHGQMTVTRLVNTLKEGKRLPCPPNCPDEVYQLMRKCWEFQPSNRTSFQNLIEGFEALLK

Row | EC50 [µM] | Tyk2 selectivity over Jak1 | Compound
1 | 27.2 | 243-fold | COCc1cc(-c2cn(C)c3cnc(NC(C)=O)cc23)nc([C@]2([C@@H](C)O)CCOC2)c1 [Example 22.4, N-(3-(6-((R)-3-((R)-1-hydroxyethyl)tetrahydrofuran-3-yl)-4-(methoxymethyl)pyridin-2-yl)-1-methyl-1H-pyrrolo[2,3-c]pyridin-5-yl)acetamide]
2 | 12.9 | 88-fold | COCc1cc(-c2cn(C)c3cnc(NC(C)=O)cc23)nc([C@]2([C@H](C)O)CCOC2)c1 [Example 22.3, N-(3-(6-((R)-3-((S)-1-hydroxyethyl)tetrahydrofuran-3-yl)-4-(methoxymethyl)pyridin-2-yl)-1-methyl-1H-pyrrolo[2,3-c]pyridin-5-yl)acetamide]
